By IC50 is commonly meant the concentration that gives 50% inhibition.

The results in this text go back to patent publication US10730875B2, “Substituted imidazo[1,2-A]pyridin-2-ylamine compounds, and pharmaceutical compositions and methods of use thereof” (JN Therapeutics, priority 2015, dated 2020).

What all share (type): biochemical
Experiment [1] deals with human Janus kinase 2 (JAK2), recombinant catalytic domain (Homo sapiens (Human), UniProt O60674). Kind of experiment: LanthaScreen TR-FRET enzymatic assay, JAK2. The following applies: for IC50: TR-FRET, 1 mM ATP, GFP-STAT1 substrate, read-out: Inhibitory Activity IC50 JAK2; for Selectivity JAK2/JAK1: ratio of IC50 against JAK2 over IC50 against JAK1. As for the experimental part: (§1) The in vitro inhibition of recombinant human JAKs was determined as follow.
(§2) Compounds were tested in LANTHASCREEN™ time-resolved fluorescence energy transfer (TR-FRET) enzymatic assays from Invitrogen. The human Janus kinase 1 (JAK1) used in the assay is the recombinant JAK1 catalytic domain (amino acids 866-1154) expressed and purified from insect cells (Invitrogen, Cat. No. PV4774). The human Janus kinase 2 (JAK2) used in the assay is the recombinant JAK2 catalytic domain (amino acids 808-1132) expressed and purified from insect cells (Invitrogen, Cat. No. PV4210). The human Janus kinase 3 (JAK3) used in the assay is the recombinant JAK3 catalytic domain (amino acids 781-1124) expressed and purified from insect cells (Invitrogen, Cat. No. PV3855). The human tyrosine kinase 2 (TYK2) used in the assay is the recombinant TYK2 catalytic domain (amino acids 833-1187) expressed and purified from insect cells (Invitrogen, Cat. No. PV4790). The substrate is a recombinant STAT1 expressed as a fusion with GFP (Green Fluorescent Protein) to act as a physiological substrate (Invitrogen, Cat. No. PV5211).
(§3) Test compounds were prepared and diluted in DMSO in 3-fold serial dilutions for 10 doses to 100× of the final testing concentrations. The compounds were then further diluted to 4× by the kinase reaction buffer (Invitrogen, Cat. No. PV3189). The enzymatic reaction for compound testing was performed in a white 384-well polypropylene plate (Packard, Cat. No. 6005214) with a total reaction volume of 10 μL containing 440 ng/mL JAK1, 11 ng/mL JAK2, 400 ng/mL JAK3, or 200 ng/mL TYK2, 100 nM substrate, and 1 mM ATP. The assay started with loading 2.5 μL of JAK1, JAK2, JAK3, or TYK2 diluted in the kinase reaction buffer to wells, followed by addition of an equal volume of 4× compounds for 15-min incubation at room temperature for pre-treatment. The enzymatic reaction was initiated by addition of 5 μL of a mixture of the substrate and ATP prepared in the kinase reaction buffer. After one hour reaction, 10 μL mixture of EDTA (final 10 mM) and terbium-labeled anti-pSTAT1 (pTyr701) antibody (final 2 nM) (Invitrogen, Cat. No. PV4844) prepared in TR-FRET antibody dilution buffer (Invitrogen, Cat. No. PV3574) was added to stop the enzymatic reaction and produce TR-FRET signals. After 30 minutes of incubation at room temperature, the plate was read in Tecan Infinite F200 Pro with the following settings: Excitation 340 nm (30)/Emission1 495 nm (10)/Emission2 520 nm (25). The TR-FRET values were dimensionless numbers that were calculated as the ratio of the acceptor ([…]) signal to the donor (Terbium) signal. Percent of inhibition was calculated as (100%−percentage of compound-treated/DMSO vehicle-treated). The dose-response curves were generated and the IC50s were calculated by nonlinear sigmoid curve fitting using GraphPad Prism.
(§4) In Table 1, A represents a value no greater than 500 nM, B represents a value greater than 500 nM but no greater than 1 μM, C represents a value greater than 1 μM but no greater than 5 μM, and D represents a value greater than 5 μM. In Table 2, A′ represents a ratio of greater than 8, B′ represents a ratio of no greater than 8 but no less than 4, C′ represents a ratio of no greater than 4 but no less than 2, and D′ represents a ratio of no greater than 2. The selectivity is expressed as a ratio of the IC50 values of a compound against two kinases to be compared.
A general note: In TR-FRET formats the signal depends on donor and acceptor labels being close together.

Experiment [2] concerns the target human Janus kinase 1 (JAK1), recombinant catalytic domain (Homo sapiens (Human), UniProt P23458). Nature of the experiment: LanthaScreen TR-FRET enzymatic assay, JAK1. The following applies: 1 mM ATP, GFP-STAT1 substrate, read-out: Inhibitory Activity IC50 JAK1. As for the experimental part:
as §1, §2, §3, §4

Experiment [3] has as its system human tyrosine kinase 2 (TYK2), recombinant catalytic domain. Nature of the experiment: LanthaScreen TR-FRET enzymatic assay, TYK2. The following applies: ratio of IC50 against TYK2 over IC50 against JAK1. The procedure:
as §1, §2, §3, §4

The target in experiment [4] is human tyrosine kinase 2 (TYK2), recombinant catalytic domain (Homo sapiens (Human), UniProt P29597). Nature of the experiment: LanthaScreen TR-FRET enzymatic assay, TYK2. The following applies: TR-FRET, 1 mM ATP, GFP-STAT1 substrate; read-out: Inhibitory Activity IC50 TYK2. The procedure:
as §1, §2, §3, §4

The target in experiment [5] is human Janus kinase 3 (JAK3), recombinant catalytic domain (Homo sapiens (Human), UniProt P52333). Nature of the experiment: LanthaScreen TR-FRET enzymatic assay, JAK3. The following applies: TR-FRET, 1 mM ATP, GFP-STAT1 substrate; read-out: Inhibitory Activity IC50 JAK3. As for the experimental part:
as §1, §2, §3, §4

Experiment [6] relates to human Janus kinase 3 (JAK3), recombinant catalytic domain. Kind of experiment: LanthaScreen TR-FRET enzymatic assay, JAK3. The following applies: ratio of IC50 against JAK3 over IC50 against JAK1. As for the experimental part:
as §1, §2, §3, §4

Each structure is given as a SMILES string.

human Janus kinase 3 (JAK3), recombinant catalytic domain (Homo sapiens (Human), UniProt P52333), sequence (P52333 781-1124): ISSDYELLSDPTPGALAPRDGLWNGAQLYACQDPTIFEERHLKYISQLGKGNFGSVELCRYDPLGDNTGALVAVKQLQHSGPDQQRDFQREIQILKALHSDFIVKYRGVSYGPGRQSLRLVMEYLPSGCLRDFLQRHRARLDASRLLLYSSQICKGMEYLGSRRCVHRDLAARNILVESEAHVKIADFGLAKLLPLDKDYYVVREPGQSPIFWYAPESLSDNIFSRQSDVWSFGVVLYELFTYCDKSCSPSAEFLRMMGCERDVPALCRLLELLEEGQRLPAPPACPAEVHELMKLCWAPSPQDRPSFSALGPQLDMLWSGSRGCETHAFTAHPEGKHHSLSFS
human Janus kinase 1 (JAK1), recombinant catalytic domain, sequence (P23458 866-1154): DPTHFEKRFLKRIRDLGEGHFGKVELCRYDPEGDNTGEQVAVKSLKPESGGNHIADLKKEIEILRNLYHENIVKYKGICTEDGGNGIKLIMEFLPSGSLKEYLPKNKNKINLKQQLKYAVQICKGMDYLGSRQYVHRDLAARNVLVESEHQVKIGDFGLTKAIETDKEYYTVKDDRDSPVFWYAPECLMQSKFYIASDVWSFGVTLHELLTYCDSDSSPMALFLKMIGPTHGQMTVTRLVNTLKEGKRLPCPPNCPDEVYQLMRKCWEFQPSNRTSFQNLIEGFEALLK
human tyrosine kinase 2 (TYK2), recombinant catalytic domain (Homo sapiens (Human), UniProt P29597), sequence (P29597 833-1187): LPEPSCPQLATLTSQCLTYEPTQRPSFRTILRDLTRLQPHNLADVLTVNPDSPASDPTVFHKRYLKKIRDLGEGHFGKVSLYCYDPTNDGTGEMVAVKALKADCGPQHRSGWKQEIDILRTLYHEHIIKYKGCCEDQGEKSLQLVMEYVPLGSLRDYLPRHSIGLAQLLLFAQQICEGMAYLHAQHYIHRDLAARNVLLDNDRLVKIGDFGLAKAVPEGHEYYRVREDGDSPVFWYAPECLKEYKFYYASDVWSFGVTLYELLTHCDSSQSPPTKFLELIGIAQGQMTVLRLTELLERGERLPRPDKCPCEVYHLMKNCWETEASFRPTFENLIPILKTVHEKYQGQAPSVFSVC
human Janus kinase 2 (JAK2), recombinant catalytic domain, sequence (O60674 808-1132): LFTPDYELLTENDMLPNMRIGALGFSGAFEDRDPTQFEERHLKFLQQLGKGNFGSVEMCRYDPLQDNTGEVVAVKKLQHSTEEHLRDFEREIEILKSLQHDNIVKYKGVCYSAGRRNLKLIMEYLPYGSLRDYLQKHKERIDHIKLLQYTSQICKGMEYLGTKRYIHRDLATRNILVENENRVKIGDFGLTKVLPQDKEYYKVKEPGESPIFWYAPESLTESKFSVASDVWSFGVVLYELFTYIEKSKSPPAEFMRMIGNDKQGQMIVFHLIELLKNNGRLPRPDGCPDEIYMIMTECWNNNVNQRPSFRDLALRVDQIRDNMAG

`N#CCc1ccc(-c2cccc3nc(N)cn23)c(F)c1` [Compound 21]: the IC50 in experiment [1], in experiment [2], in experiment [4] and in experiment [5] was greater than 5 µM in each case. Moreover, in experiment [1], the “Selectivity JAK2/JAK1” value is on record as “A′ (A′ represents a ratio of greater than 8)”. The “Selectivity TYK2/JAK1” value in experiment [3] is recorded as “C′ (C′ represents a ratio of no greater than 4 but no less than 2)”. The “Selectivity JAK3/JAK1” value in experiment [6] is reported as “A′ (A′ represents a ratio of greater than 8)”.
As to `O=C(Nc1cn2c(-c3ccc(CN4CC[C@H](O)C4)cc3)cccc2n1)C1CC1` [Compound 8], the IC50 in experiment [1] was greater than 5 µM; in experiment [2], 0.5 to 1 µM; in experiment [4], greater than 5 µM; in experiment [5], greater than 5 µM. Also, the “Selectivity JAK2/JAK1” value in experiment [1] is “A′ (A′ represents a ratio of greater than 8)”. In addition, the “Selectivity TYK2/JAK1” value in experiment [3] is on record as “A′ (A′ represents a ratio of greater than 8)”. In addition, the “Selectivity JAK3/JAK1” value in experiment [6] was “A′ (A′ represents a ratio of greater than 8)”.
With `N#CC1CCN(Cc2ccc(-c3cccc4nc(NC(=O)C5CC5)cn34)cc2)CC1` [Compound 7], the IC50 in experiment [1] is greater than 5 µM; in experiment [2], 0.5 to 1 µM; in experiment [4], greater than 5 µM; in experiment [5], greater than 5 µM. The “Selectivity JAK2/JAK1” value in experiment [1] is listed as “A′ (A′ represents a ratio of greater than 8)”. The “Selectivity TYK2/JAK1” value in experiment [3] is reported as “A′ (A′ represents a ratio of greater than 8)”. The “Selectivity JAK3/JAK1” value in experiment [6] was “A′ (A′ represents a ratio of greater than 8)”.
On to `N#CCc1ccc(-c2cccc3nc(NC(=O)C4CC4)cn23)cc1` [Compound 11], for which the IC50 in experiment [1] is greater than 5 µM; in experiment [2] it was no more than 0.5 µM; in experiment [4] it was greater than 5 µM; in experiment [5] it was greater than 5 µM. Moreover, in experiment [1], the “Selectivity JAK2/JAK1” value was “A′ (A′ represents a ratio of greater than 8)”. The “Selectivity TYK2/JAK1” value in experiment [3] is “A′ (A′ represents a ratio of greater than 8)”. For the same compound, the “Selectivity JAK3/JAK1” value in experiment [6] is listed as “A′ (A′ represents a ratio of greater than 8)”.
For `N#CCc1ccccc1NCc1ccc(-c2cccc3nc(NC(=O)C4CC4)cn23)cc1` [Compound 32], the IC50 was greater than 5 µM in experiment [1], no more than 0.5 µM in experiment [2], greater than 5 µM in experiment [4] and greater than 5 µM in experiment [5]. In experiment [1], the “Selectivity JAK2/JAK1” value is reported as “A′ (A′ represents a ratio of greater than 8)”. Further, the “Selectivity TYK2/JAK1” value in experiment [3] is reported as “A′ (A′ represents a ratio of greater than 8)”. In addition, the “Selectivity JAK3/JAK1” value in experiment [6] was “A′ (A′ represents a ratio of greater than 8)”.
As to `O=C(Nc1cn2c(-c3ccc(C(=O)N4CCS(=O)(=O)CC4)cc3)cccc2n1)C1CC1` [Compound 13, N-(5-(4-(1,1-Dioxo-1-thiomorpholine-4-carbonyl)phenyl)imidazo[1,2-a]pyridin-2-yl)cyclopropane Carboxamide], the IC50 is greater than 5 µM in experiment [1], 0.5 to 1 µM in experiment [2], greater than 5 µM in experiment [4] and greater than 5 µM in experiment [5]. Further, the “Selectivity JAK2/JAK1” value in experiment [1] was “A′ (A′ represents a ratio of greater than 8)”. Further, in experiment [3], the “Selectivity TYK2/JAK1” value is reported as “A′ (A′ represents a ratio of greater than 8)”. Moreover, the “Selectivity JAK3/JAK1” value in experiment [6] is given as “A′ (A′ represents a ratio of greater than 8)”.
Take `Cc1cc(CN2CCS(=O)(=O)CC2)ccc1-c1cccc2nc(NC(=O)C3CC3)cn12` [Compound 12]: the concentration for half-maximal inhibition (IC50) in experiment [1] was greater than 5 µM; in experiment [2], 1 to 5 µM; in experiment [4] it was greater than 5 µM; in experiment [5] it was greater than 5 µM. Also, in experiment [1], the “Selectivity JAK2/JAK1” value is listed as “A′ (A′ represents a ratio of greater than 8)”. For the same compound, in experiment [3], the “Selectivity TYK2/JAK1” value is “A′ (A′ represents a ratio of greater than 8)”. Also, the “Selectivity JAK3/JAK1” value in experiment [6] was “A′ (A′ represents a ratio of greater than 8)”.
Regarding `O=C(Nc1cn2c(-c3ccc(CN4CC[C@@H](O)C4)cc3)cccc2n1)C1CC1` [Compound 9], the IC50 in experiment [1] is greater than 5 µM; in experiment [2] it was 1 to 5 µM; in experiment [4] it was greater than 5 µM; in experiment [5], greater than 5 µM. Further, in experiment [1], the “Selectivity JAK2/JAK1” value is “A′ (A′ represents a ratio of greater than 8)”. Moreover, in experiment [3], the “Selectivity TYK2/JAK1” value is “A′ (A′ represents a ratio of greater than 8)”. In addition, the “Selectivity JAK3/JAK1” value in experiment [6] was “A′ (A′ represents a ratio of greater than 8)”.
